Laboratory results published in US9421263B2, “Antimicrobial compositions containing synergistic combinations of quaternary ammonium compounds and essential oils and/or constituents thereof” (THE TRUSTEES OF COLUMBIA UNIVERSITY IN THE CITY OF NEW YORK, priority 2003, dated 2016).

Legend:
S. aureus = assay: Evaluation of rapid antimicrobial activity in presence of serum (S. aureus); assay type: cell-based; conditions: for synergy of the combination, in words: Example 1, Table 1, Base #1; for Log10 reduction / CFU/mL: Table 1, BZK 0.12%, CHG 0.05%, TC 0.3%, ZP 0.5%, F/LO/LI/CI 0.3%; for Log10 reduction: Base #1 (zinc salts), versus Control (Base); for Log10 reduction / log10 reduction, S. aureus / cfu/ml, S. aureus / log10 reduction, With zinc salts / cfu/ml, With zinc salts / log10 reduction, Without zinc salts / cfu/ml, Without zinc salts / log10 reduction / cfu/ml: serum; for Log10 reduction / CFU/mL / log10 reduction, S. aureus / cfu/ml, S. aureus / log10 reduction, With zinc salts / cfu/ml, With zinc salts / log10 reduction, Without zinc salts / cfu/ml, Without zinc salts / log10 reduction / cfu/ml: 15 seconds; for CFU/mL: agents in alcohol based zinc gel Base #1, bovine adult serum, control 3.4 × 10^7; for log10 reduction, S. aureus / cfu/ml, S. aureus: Base #2; for log10 reduction, With zinc salts / cfu/ml, With zinc salts / log10 reduction, Without zinc salts / cfu/ml, Without zinc salts: Table 2; for log10 reduction, With zinc salts / cfu/ml, With zinc salts: Base #1 with zinc salts; for cfu/ml, With zinc salts / cfu/ml: control gel 1.4 × 10^7; for log10 reduction, Without zinc salts / cfu/ml, Without zinc salts: Base #2 without zinc salts; for cfu/ml, Without zinc salts: control gel 4.1 × 10^7; for log10 reduction / cfu/ml: Table 3, groups in gel Base #2 (% w/w); for synergy in combination with farnesol, in words: Example 3, Table 3, rapid serum-based assay
Description: Evaluation of Rapid Antimicrobial Activity in Presence of Serum.
To determine the efficacy of the antimicrobial composition on the skin, which may be contaminated with blood or other proteinaceous fluids containing bacteria, the antimicrobial activity was evaluated in the presence of serum as follows. Briefly, 0.5 ml of 10^8 CFU of S. aureus/ml was added to 0.5 ml of bovine adult serum in a sterile culture tube and mixed. 0.5 ml of the test formulation was added to each tube and vortexed. After 15 seconds, it was further diluted 1:100 with drug inactivating media (LTSB) and 0.5 ml was plated on a TSA plate. The plates were incubated at 37° C. for 24 hours and the colony count per ml of culture was determined.

E. coli = assay: Rapid antimicrobial activity assay in presence of serum (E. coli); assay type: cell-based
[1] = cited from earlier work
[2] = Example 6, Table 7, molar proportions
[3] = Table 6, Gel Base #1, ingredients % w/w, control base 3.4 × 10^7 cfu/ml
[4] = Table 7, ingredients in gram millimoles per 100 g Gel, control base 6.4 × 10^7 cfu/ml
[5] = Table 5, Base #2, 15 seconds, gel base 2.6 × 10^7
[6] = Table 4, BZK 0.12% w/w, BZT 0.18% w/w, all other EO/IC 0.5% w/w
[7] = Table 4, BZK 0.12% w/w, BZT 0.18% w/w, all other EO/IC 0.5% w/w, control 1.4 × 10^7
[8] = Table 4, Base #2, BZK 0.12% w/w, BZT 0.18% w/w, all other EO/IC 0.5% w/w, 15 seconds
[9] = Table 4, Base #2, BZK 0.12% w/w, BZT 0.18% w/w, all other EO/IC 0.5% w/w, 15 seconds, control 2.6 × 10^7

Compound	synergy of the combination, in words (S. aureus)	Log10 reduction (S. aureus) [log10]	CFU/mL (S. aureus)	log10 reduction in colony count from the control (S. aureus; [3]) [log10]	log10 reduction in colony count from the control (S. aureus; [4]) [log10]	log10 reduction, S. aureus (S. aureus; Table 5) [log10]	cfu/ml, S. aureus (S. aureus; Table 5, gel base 1.4 × 10^7)	log10 reduction, E. coli (E. coli; Table 5, Base #2, 15 seconds) [log10]	cfu/ml, E. coli (E. coli; [5])	also measured
Oc1cc(Cl)ccc1Oc1ccc(Cl)cc1Cl [TC, triclosan]	No such synergism was observed when farnesol was combined	1.3	1.5 × 10^6 CFU/mL	1.3	1.3					whether farnesol shows synergy with or enhances the antimicrobial agent, in words (S. aureus; Example 6, Table 6, % w/w): does not show any synergy; whether farnesol shows synergy with or enhances the antimicrobial agent, in words (S. aureus; [2]): but not with triclosan
C=CC(C)(O)CCC=C(C)C (stereo not shown) [LI, Linalool]	synergistic antimicrobial effects when combined with BZK	1.3	1.5 × 10^6 CFU/mL							
CC(C)=CCCC(C)=CC=O [CI, Citral]	synergistic antimicrobial effects when combined with BZK	1.3	1.5 × 10^6 CFU/mL							
Polyhexamethylenebiguanide hydrochloride [PHMB]				2.9	2.1	2.9	4.3 × 10^4 cfu/ml	1.6	6.0 × 10^5 cfu/ml	effect of added biguanide on the combination of BZT and farnesol, in words (S. aureus; Example 5, Table 5 (S. aureus and E. coli)): appears to enhance the activity of the combination of BZT and farnesol; whether farnesol shows synergy with or enhances the antimicrobial agent, in words (S. aureus; Example 6, Table 6, % w/w): enhances the activity; whether farnesol shows synergy with or enhances the antimicrobial agent, in words (S. aureus; [2]): appears to enhance the activity of farnesol
CC(C)=CCCC(C)=CCCC(C)=CCO [F, Farnesol]	synergistic antimicrobial effects when combined with BZK	0.6	8.4 × 10^6 CFU/mL	0.6	1.8	1.5	4.5 × 10^5 cfu/ml	1.8	4.3 × 10^5 cfu/ml	log10 reduction, With zinc salts (S. aureus): 1.5 log10; cfu/ml, With zinc salts (S. aureus): 4.5 × 10^5 cfu/ml; log10 reduction, Without zinc salts (S. aureus): 1.7 log10; cfu/ml, Without zinc salts (S. aureus): 8.9 × 10^5 cfu/ml; log10 reduction (S. aureus): 1.5 log10; cfu/ml (S. aureus; listed as Farnesol (0.3%)): 4.6 × 10^5 cfu/ml; cfu/ml (S. aureus; listed as Farnesol (0.5%)): 4.5 × 10^5 cfu/ml; log10 reduction, S. aureus (S. aureus; [6]): 1.5 log10; cfu/ml, S. aureus (S. aureus; [7]): 4.5 × 10^5 cfu/ml; log10 reduction, E. coli (E. coli; [8]): 1.8 log10; cfu/ml, E. coli (E. coli; [9]): 4.3 × 10^5 cfu/ml
zinc glycerate										water solubility, in words [1]: moderately water soluble
zinc pyrithione [ZP]	No such synergism was observed when farnesol was combined	1.4	1.4 × 10^6 CFU/mL							
zinc picolinate										water solubility, in words [1]: moderately water soluble
benzalkonium chloride [BZK]	significant synergistic activity in combination with EOs and ICs	1.8	5.4 × 10^5 CFU/mL	1.8						synergy in combination with farnesol, in words (S. aureus): synergistic antimicrobial activity when used in combination with farnesol; whether farnesol shows synergy with or enhances the antimicrobial agent, in words (S. aureus; Example 6, Table 6, % w/w): shows synergy; cfu/ml (S. aureus; listed as BZK (0.06%)): 1.8 × 10^6 cfu/ml; cfu/ml (S. aureus; listed as BZK (0.12%)): 5.4 × 10^5 cfu/ml; log10 reduction (S. aureus; listed as BZK (0.06%)): 0.9 log10; log10 reduction (S. aureus; listed as BZK (0.12%)): 1.4 log10; log10 reduction, S. aureus (S. aureus; [6]): 1.6 log10; cfu/ml, S. aureus (S. aureus; [7]): 3.3 × 10^5 cfu/ml; log10 reduction, E. coli (E. coli; [8]): 1.6 log10; cfu/ml, E. coli (E. coli; [9]): 5.8 × 10^5 cfu/ml
N=C(NCCCCCCNC(=N)NC(=N)Nc1ccc(Cl)cc1)NC(=N)Nc1ccc(Cl)cc1.O=C(O)[C@H](O)[C@@H](O)[C@H](O)[C@H](O)CO.O=C(O)[C@H](O)[C@@H](O)[C@H](O)[C@H](O)CO [CHG, chlorhexidine gluconate]	No such synergism was observed when farnesol was combined	1.7	6.6 × 10^5 CFU/mL	1.7	1.9	1.3	6.6 × 10^5 cfu/ml	1.7	4.8 × 10^5 cfu/ml	
CC(C)(C)CC(C)(C)c1ccc(OCCOCC[N+](C)(C)Cc2ccccc2)cc1 [BZT, benzethonium chloride]				1.6	1.9	1.4	5.3 × 10^5 cfu/ml	1.8	4.3 × 10^5 cfu/ml	synergy in combination with farnesol, in words (S. aureus): synergistic antimicrobial activity when used in combination with farnesol; log10 reduction, With zinc salts (S. aureus): 1.6 log10; cfu/ml, With zinc salts (S. aureus): 3.3 × 10^5 cfu/ml; log10 reduction, Without zinc salts (S. aureus): 1.7 log10; cfu/ml, Without zinc salts (S. aureus): 7.5 × 10^5 cfu/ml; cfu/ml (S. aureus; listed as BZT (0.06%)): 5.7 × 10^5 cfu/ml; cfu/ml (S. aureus; listed as BZT (0.12%)): 4.7 × 10^5 cfu/ml; cfu/ml (S. aureus; listed as BZT (0.18%)): 3.3 × 10^5 cfu/ml; log10 reduction (S. aureus; listed as BZT (0.06%)): 1.4 log10; log10 reduction (S. aureus; listed as BZT (0.12%)): 1.5 log10; log10 reduction (S. aureus; listed as BZT (0.18%)): 1.6 log10; log10 reduction, S. aureus (S. aureus; [6]): 1.4 log10; cfu/ml, S. aureus (S. aureus; [7]): 5.3 × 10^5 cfu/ml; log10 reduction, E. coli (E. coli; [8]): 1.8 log10; cfu/ml, E. coli (E. coli; [9]): 4.3 × 10^5 cfu/ml
